Measured values from US5266570A, “Piperidine derivatives, compositions and use” (Imperial Chemical Industries PLC, priority 1991, dated 1993).

What was measured:
[1] = molecular target: T1, dopamine (DA) D-2 receptor (Rattus norvegicus, UniProt P61169); test: TEST A: [3H]-spiperone binding, dopamine (DA) D-2 receptor, rat striatal membranes; conditions: 0.5 nM [3H] spiperone, 40 nM ketanserin, pH 7.7, 37° C., 15 min, typical values, read-out: IC50 (drug concentration which produced a 50% displacement) for the displacement of [3H] spiperone
T1 construct: Specifically, rat striatal membranes were used; from tissue; host or cells: rat striatum (membranes)
From the text: (§1) The compounds of Formula I are antagonists of dopamine D-2 receptors, and as such are predicted to be useful as antipsychotic drugs. D-2 antagonism can be shown by standard tests such as antagonism of [^3 H]-spiperone binding (Test A), and/or antagonism of apomorphine-induced climbing and apomorphine-induced disruption of swimming (Test B).
The receptor binding assay used to measure affinities of various compounds for the dopamine (DA) D-2 receptor subtype was that described by Saller and Salama in J Pharmacol Exp Ther 236, page 714, 1986.
Specifically, rat striatal membranes were used. Tissue membranes were prepared and washed once in 50 volumes of the appropriate Tris HCl buffer. For the D-2 receptor binding assay, striatal membranes were suspended to a final concentration of 8 mg/ml in 50 mM Tris HCl with 40 nM ketanserin, pH 7.7. Nonspecific binding to D-2 receptors was measured in the presence of 1.0 μM (+)-butaclamol. IC50 s (drug concentration which produced a 50% displacement) for the displacement of 0.5 nM [^3 H] spiperone were determined using at least five concentrations of each drug in triplicate. One-half milliliter of membrane suspension was incubated with the compound of interest or vehicle or nonspecific drug, ligand and appropriate Tris HCl buffer. […] The amount of drug bound to the membranes was assessed using liquid scintillation counting techniques. […]

[2] = test system: apomorphine-induced climbing and apomorphine-induced disruption of swimming; test: TEST B: antagonism of apomorphine-induced climbing and apomorphine-induced disruption of swimming; assay type: in vivo, mouse (female Swiss-Webster mice); conditions: Mus musculus; mice, oral, 30 min before apomorphine HCl 1.25 mg/kg sc; typical values; read-out: minimum effective dose (decrease in climbing score accompanied by increase in swimming score)
Method: as §1
Female Swiss-Webster mice weighing approximately 20 g were deprived of food for approximately 24 h and then dosed orally with various doses of either the vehicle or test agent over a range of doses (N=20 mice per treatment group). Thirty minutes later they were dosed with apomorphine HCl at 1.25 mg/kg, sc, and placed into climbing cages. The climbing cages were 9 cm wide, 15 cm deep and 30 cm high. One wall had 27 horizontal rungs spaced 1 cm apart. Thirteen minutes after apomorphine each mouse was observed continuously for 1 min and the highest and lowest rung reached by its front paws was recorded. […] (The highest and lowest scores were 27 and 0, respectively.) Immediately after the 1-min climbing observation period each mouse was placed into a circular swimming tank for 2 min and the number of swims was counted. […] A "swim" was scored each time a mouse swam from one mark to the other. The mice were observed through overhead mirrors and the number of 180 degree swims was recorded for each mouse. […]

T1 sequence (P61169 whole entry): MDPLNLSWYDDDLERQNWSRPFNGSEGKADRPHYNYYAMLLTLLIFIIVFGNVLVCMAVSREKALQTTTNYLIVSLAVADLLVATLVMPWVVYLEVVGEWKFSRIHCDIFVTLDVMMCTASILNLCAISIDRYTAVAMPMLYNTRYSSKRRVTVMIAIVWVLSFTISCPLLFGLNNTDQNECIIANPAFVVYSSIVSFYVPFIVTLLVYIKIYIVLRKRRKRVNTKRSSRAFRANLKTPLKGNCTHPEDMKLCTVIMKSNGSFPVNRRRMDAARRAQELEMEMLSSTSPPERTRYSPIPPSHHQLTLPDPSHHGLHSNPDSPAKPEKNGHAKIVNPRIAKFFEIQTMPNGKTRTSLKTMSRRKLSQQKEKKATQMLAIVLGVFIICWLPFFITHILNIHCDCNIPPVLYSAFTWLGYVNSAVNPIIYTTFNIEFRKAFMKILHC

IC50 [1] | Structure (SMILES) | minimal effective dose [2]
9 nM | CCOCC(=O)NC1CCN(C[C@@]23C[C@@H](c4ccccc42)c2ccc(Cl)cc23)CC1 [Example 1, N-(1-[(9S,10S)-(+)-2-Chloro-9,10-dihydro-9,10-methanoanthracen-9-ylmethyl]-4-piperidyl)-2-ethoxyacetamide] | 2.5 mg/kg
146 nM | CCC(=O)NC1CCN(CC23CC(c4ccccc42)c2ccc(Cl)cc23)CC1 (stereo not shown) [Example 24, N-(1-[2-Chloro-9,10-dihydro-9,10-methanoanthracen-9-ylmethyl]-4-piperidyl)propionamide] | 40 mg/kg
